Results reported in ChEMBL document CHEMBL5096202, “Carbon-silicon switch led to the discovery of novel synthetic cannabinoids with therapeutic effects in a mouse model of multiple sclerosis” (Eur J Med Chem, 2021).
Activity calls are given as the source filed them. The calls are words filed in the database; no cut-off is given here.

target: T1, Cannabinoid receptor 2 (Homo sapiens, UniProt P34972); assay: Agonist activity at recombinant human CB2 receptor expressed in CHO cells assessed as inhibition of forskolin-induced cAMP accumulation by measuring maximum efficacy preincubated for 15 mins followed by forskolin stimulation and measured after 15 mins by HTRF assay relative to control; format: functional, cell-based; settings: filed as agonist, time 30.0 min
T1 sequence (P34972 whole entry): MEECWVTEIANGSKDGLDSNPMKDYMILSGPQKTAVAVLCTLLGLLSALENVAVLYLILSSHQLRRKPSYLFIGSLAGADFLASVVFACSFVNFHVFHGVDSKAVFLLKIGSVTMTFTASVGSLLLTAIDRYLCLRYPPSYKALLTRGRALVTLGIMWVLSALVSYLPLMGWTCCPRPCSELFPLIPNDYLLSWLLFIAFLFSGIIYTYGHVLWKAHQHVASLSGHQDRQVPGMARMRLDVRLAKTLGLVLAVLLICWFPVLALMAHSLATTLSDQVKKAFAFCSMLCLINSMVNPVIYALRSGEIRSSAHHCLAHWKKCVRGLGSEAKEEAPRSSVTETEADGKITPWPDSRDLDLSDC

Q: Which Emax does the source give for CCCC[Si](C)(C)c1cc(O)c(C2CCCC2)c(O)c1 here?
A: 102%

Q: Which Emax does the source give for CCCCCC[Si](C)(C)c1cc(O)c(C2CCCC2)c(O)c1 here?
A: 104%

Q: For CCCCCC[Si](C)(C)c1cc(OC)c([C@H]2C=C(CO)[C@H]3C[C@@H]2C3(C)C)c(OC)c1, which Emax is on record?
A: 90.6%

target: Cannabinoid receptor 1 (Homo sapiens, UniProt P21554); assay: Displacement of [3H]-CP55940 from recombinant human CB1 receptor expressed in CHO cells assessed as inhibition constant incubated for 120 mins by radioligand binding assay; format: cell-based; settings: not given
Sequence (P21554 whole entry): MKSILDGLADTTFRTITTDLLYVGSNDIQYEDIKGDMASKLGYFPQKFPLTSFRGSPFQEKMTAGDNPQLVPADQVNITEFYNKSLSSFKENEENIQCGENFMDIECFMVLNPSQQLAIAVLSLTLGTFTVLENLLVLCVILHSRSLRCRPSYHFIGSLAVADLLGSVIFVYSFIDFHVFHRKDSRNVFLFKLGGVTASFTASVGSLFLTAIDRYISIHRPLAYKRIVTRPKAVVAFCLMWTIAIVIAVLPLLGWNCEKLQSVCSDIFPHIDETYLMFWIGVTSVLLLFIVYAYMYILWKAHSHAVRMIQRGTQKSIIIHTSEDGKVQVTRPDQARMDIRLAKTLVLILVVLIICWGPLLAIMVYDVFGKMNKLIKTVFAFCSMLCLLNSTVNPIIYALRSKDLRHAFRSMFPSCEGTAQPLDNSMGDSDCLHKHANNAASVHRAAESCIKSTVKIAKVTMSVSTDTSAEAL

Q: Which Ki does the source give for CCCC[Si](C)(C)c1cc(O)c(C2CCCC2)c(O)c1 here?
A: 464 nM

Q: With CCCCCC[Si](C)(C)c1cc(O)c(C2CCCC2)c(O)c1 as the molecule, how does the Ki read?
A: 64.2 nM

Q: For CCCCCC[Si](C)(C)c1cc(OC)c([C@H]2C=C(CO)[C@H]3C[C@@H]2C3(C)C)c(OC)c1, which Ki is on record?
A: 2890 nM

target: T1, Cannabinoid receptor 2; assay: Displacement of [3H]-CP55940 from recombinant human CB2 receptor expressed in CHO cells assessed as inhibition constant incubated for 120 mins by radioligand binding assay; format: cell-based; settings: not given

Q: Which Ki does the source give for CCCC[Si](C)(C)c1cc(O)c(C2CCCC2)c(O)c1 here?
A: 368 nM

Q: Which Ki does the source give for CCCCCC[Si](C)(C)c1cc(O)c(C2CCCC2)c(O)c1 here?
A: 42.3 nM

Q: For CCCCCC[Si](C)(C)c1cc(OC)c([C@H]2C=C(CO)[C@H]3C[C@@H]2C3(C)C)c(OC)c1, which Ki is on record?
A: 4930 nM

target: T1, Cannabinoid receptor 2; assay: Agonist activity at recombinant human CB2 receptor expressed in CHO cells assessed as inhibition of forskolin-induced cAMP accumulation preincubated for 15 mins followed by forskolin stimulation and measured after 15 mins by HTRF assay; format: functional, cell-based; settings: not given

Q: For CCCC[Si](C)(C)c1cc(O)c(C2CCCC2)c(O)c1, which EC50 is on record?
A: 53.8 nM

Q: For CCCCCC[Si](C)(C)c1cc(O)c(C2CCCC2)c(O)c1, which EC50 is on record?
A: 446 nM

Q: Which EC50 does the source give for CCCCCC[Si](C)(C)c1cc(OC)c([C@H]2C=C(CO)[C@H]3C[C@@H]2C3(C)C)c(OC)c1 here?
A: 460 nM

tested on: not listed separately; assay: Metabolic stability in human liver microsomes assessed as half life; format: ADME, Microsome; settings: not given

Q: With CCCCCC[Si](C)(C)c1cc(OC)c([C@H]2C=C(CO)[C@H]3C[C@@H]2C3(C)C)c(OC)c1 as the molecule, how does the half-life read?
A: 49.7 min

tested on: not listed separately; assay: Metabolic stability in rat liver microsomes assessed as half life; format: ADME, Microsome; settings: not given

Q: Which half-life does the source give for CCCCCC[Si](C)(C)c1cc(OC)c([C@H]2C=C(CO)[C@H]3C[C@@H]2C3(C)C)c(OC)c1 here?
A: 58.9 min

tested on: not listed separately; assay: Metabolic stability in mouse liver microsomes assessed as half life; format: ADME, Microsome; settings: not given

Q: Which half-life does the source give for CCCCCC[Si](C)(C)c1cc(OC)c([C@H]2C=C(CO)[C@H]3C[C@@H]2C3(C)C)c(OC)c1 here?
A: 31.5 min

tested on: not listed separately; assay: Metabolic stability in human liver microsomes assessed as intrinsic clearance; format: ADME, Microsome; settings: read-out: CLH

Q: Which CLint scaled does the source give for CCCCCC[Si](C)(C)c1cc(OC)c([C@H]2C=C(CO)[C@H]3C[C@@H]2C3(C)C)c(OC)c1 here?
A: 35 mL/min/kg

tested on: not listed separately; assay: Metabolic stability in rat liver microsomes assessed as intrinsic clearance; format: ADME, Microsome; settings: read-out: CLH

Q: With CCCCCC[Si](C)(C)c1cc(OC)c([C@H]2C=C(CO)[C@H]3C[C@@H]2C3(C)C)c(OC)c1 as the molecule, how does the CLint scaled read?
A: 42.1 mL/min/kg

tested on: not listed separately; assay: Metabolic stability in mouse liver microsomes assessed as intrinsic clearance; format: ADME, Microsome; settings: read-out: CLH

Q: Which CLint scaled does the source give for CCCCCC[Si](C)(C)c1cc(OC)c([C@H]2C=C(CO)[C@H]3C[C@@H]2C3(C)C)c(OC)c1 here?
A: 173 mL/min/kg

tested on: not listed separately; assay: Half life in C57BL/6 mouse at 10 mg/kg, ip measured upto 24 hrs by LC-MS/MS analysis; format: ADME, organism-based; settings: in vivo

Q: With CCCCCC[Si](C)(C)c1cc(OC)c([C@H]2C=C(CO)[C@H]3C[C@@H]2C3(C)C)c(OC)c1 as the molecule, how does the half-life read?
A: 407 min

tested on: not listed separately; assay: Tmax in C57BL/6 mouse at 10 mg/kg, ip measured upto 24 hrs by LC-MS/MS analysis; format: ADME, organism-based; settings: in vivo

Q: With CCCCCC[Si](C)(C)c1cc(OC)c([C@H]2C=C(CO)[C@H]3C[C@@H]2C3(C)C)c(OC)c1 as the molecule, how does the Tmax read?
A: 120 min

tested on: not listed separately; assay: Cmax in C57BL/6 mouse at 10 mg/kg, ip measured upto 24 hrs by LC-MS/MS analysis; format: ADME, organism-based; set-up: dose 10 mg/kg, time < 24 hrs, route ip; settings: in vivo

Q: Which Cmax does the source give for CCCCCC[Si](C)(C)c1cc(OC)c([C@H]2C=C(CO)[C@H]3C[C@@H]2C3(C)C)c(OC)c1 here?
A: 2520 ng/mL

tested on: not listed separately; assay: AUClast in C57BL/6 mouse at 10 mg/kg, ip measured upto 24 hrs by LC-MS/MS analysis; format: ADME, organism-based; set-up: time < 24 hrs, dose 10 mg/kg, route ip; settings: in vivo

Q: For CCCCCC[Si](C)(C)c1cc(OC)c([C@H]2C=C(CO)[C@H]3C[C@@H]2C3(C)C)c(OC)c1, which AUC(0-t) at 24 h is on record?
A: 11600 ng·h/mL

tested on: not listed separately; assay: AUCinfinity in C57BL/6 mouse at 10 mg/kg, ip measured upto 24 hrs by LC/MS-MS analysis; format: ADME, organism-based; set-up: dose 10 mg/kg, time < 24 hrs, route ip; settings: in vivo

Q: Which AUC(0-inf) does the source give for CCCCCC[Si](C)(C)c1cc(OC)c([C@H]2C=C(CO)[C@H]3C[C@@H]2C3(C)C)c(OC)c1 here?
A: 12300 ng·h/mL

tested on: Mus musculus; assay: Antiinflammatory activity in MOG (35 to 55 residues)/pertussis toxin-induced experimental autoimmune encephalomyelitis C57BL/6 mouse model assessed as reduction in clinical score administered intraperitoneally starting from day 3 to day 28; format: functional, organism-based; settings: route ip, time 25.0 day, DDE = dose-dependent effect

Q: With CCCCCC[Si](C)(C)c1cc(OC)c([C@H]2C=C(CO)[C@H]3C[C@@H]2C3(C)C)c(OC)c1 as the molecule, how does the Activity read?
A: Dde

tested on: not listed separately; assay: Toxicity in MOG (35 to 55 residues)/pertussis toxin-induced experimental autoimmune encephalomyelitis C57BL/6 mouse model assessed as body weight loss at 10 to 30 mg/kg, ip administered starting from day 3 to day 28; format: organism-based; settings: in vivo, 600 h, dose 10-30 mg/kg, time 25 day

Q: For CCCCCC[Si](C)(C)c1cc(OC)c([C@H]2C=C(CO)[C@H]3C[C@@H]2C3(C)C)c(OC)c1, which Activity is on record?
A: Non-Toxic

tested on: not listed separately; assay: Toxicity in MOG (35 to 55 residues)/pertussis toxin-induced experimental autoimmune encephalomyelitis C57BL/6 mouse model assessed as motor defects at 30 mg/kg, ip administered once daily starting from day 3 to day 28; format: organism-based; settings: in vivo, 600 h, time 25 day

Q: Which Activity does the source give for CCCCCC[Si](C)(C)c1cc(OC)c([C@H]2C=C(CO)[C@H]3C[C@@H]2C3(C)C)c(OC)c1 here?
A: Non-Toxic

tested on: not listed separately; assay: Toxicity in MOG (35 to 55 residues)/pertussis toxin-induced experimental autoimmune encephalomyelitis C57BL/6 mouse model assessed as tolerance at 30 mg/kg, ip administered once daily starting from day 3 to day 28; format: organism-based; settings: in vivo, 600 h, time 25 day

Q: Which Activity does the source give for CCCCCC[Si](C)(C)c1cc(OC)c([C@H]2C=C(CO)[C@H]3C[C@@H]2C3(C)C)c(OC)c1 here?
A: Non-Toxic

tested on: Mus musculus; assay: (§1) Antiinflammatory activity in MOG (35 to 55 residues)/pertussis toxin-induced experimental autoimmune encephalomyelitis C57BL/6 mouse model assessed as reduction of inflammatory cell infiltration in transverse section of lumbar spinal cords at 10 to 30 mg/kg, ip administered starting from day 3 to day 28 by H&E staining based analysis; format: functional, organism-based; settings: dose 10-30 mg/kg, time 25.0 day

Q: Which Activity does the source give for CCCCCC[Si](C)(C)c1cc(OC)c([C@H]2C=C(CO)[C@H]3C[C@@H]2C3(C)C)c(OC)c1 here?
A: Active

tested on: Mus musculus; assay: as §1, with “in demyelination” for “of inflammatory cell infiltration”; format: functional, organism-based; settings: dose 10-30 mg/kg, time 25.0 day

Q: For CCCCCC[Si](C)(C)c1cc(OC)c([C@H]2C=C(CO)[C@H]3C[C@@H]2C3(C)C)c(OC)c1, which Activity is on record?
A: Active

tested on: Mus musculus; assay: as §1, with “LFB” for “H&E”; format: functional, organism-based; settings: dose 10-30 mg/kg, time 25.0 day

Q: With CCCCCC[Si](C)(C)c1cc(OC)c([C@H]2C=C(CO)[C@H]3C[C@@H]2C3(C)C)c(OC)c1 as the molecule, how does the Activity read?
A: Active

tested on: Mus musculus; assay: as §1, with “in demyelination” for “of inflammatory cell infiltration”, “LFB” for “H&E”; format: functional, organism-based; settings: dose 10-30 mg/kg, time 25.0 day

Q: Which Activity does the source give for CCCCCC[Si](C)(C)c1cc(OC)c([C@H]2C=C(CO)[C@H]3C[C@@H]2C3(C)C)c(OC)c1 here?
A: Active

tested on: Mus musculus; assay: Antiinflammatory activity in MOG (35 to 55 residues)/pertussis toxin-induced experimental autoimmune encephalomyelitis C57BL/6 mouse model assessed as reduction in infarcted brain proportion at 10 to 30 mg/kg, ip administered starting from day 3 to day 28 by TTC staining based analysis relative to control; format: functional; set-up: scale not given: the % may be the effect or the level left; settings: dose 10-30 mg/kg, time 25 day

Q: With CCCCCC[Si](C)(C)c1cc(OC)c([C@H]2C=C(CO)[C@H]3C[C@@H]2C3(C)C)c(OC)c1 as the molecule, how does the Activity read?
A: 90%

tested on: not listed separately; assay: Toxicity in MOG (35 to 55 residues)/pertussis toxin-induced experimental autoimmune encephalomyelitis C57BL/6 mouse model assessed as side effects at 10 to 30 mg/kg, ip administered once daily starting from day 3 to day 28; format: organism-based; settings: in vivo, 600 h, dose 10-30 mg/kg, time 25 day

Q: For CCCCCC[Si](C)(C)c1cc(OC)c([C@H]2C=C(CO)[C@H]3C[C@@H]2C3(C)C)c(OC)c1, which Activity is on record?
A: Non-Toxic
